Assay results taken from ChEMBL document CHEMBL1139988, “Discovery of structurally diverse HIV-1 integrase inhibitors based on a chalcone pharmacophore” (Bioorg Med Chem, 2007).
“And” between values parts separate entries of the source, which are not always exact repeats. Equal entries are not always repeated.

Legend:
[1] = molecular target: T1, Human immunodeficiency virus type 1 integrase (Human immunodeficiency virus 1, UniProt Q7ZJM1); assay: Inhibition of HIV1 integrase strand transfer activity
T1 sequence (Q7ZJM1 whole entry): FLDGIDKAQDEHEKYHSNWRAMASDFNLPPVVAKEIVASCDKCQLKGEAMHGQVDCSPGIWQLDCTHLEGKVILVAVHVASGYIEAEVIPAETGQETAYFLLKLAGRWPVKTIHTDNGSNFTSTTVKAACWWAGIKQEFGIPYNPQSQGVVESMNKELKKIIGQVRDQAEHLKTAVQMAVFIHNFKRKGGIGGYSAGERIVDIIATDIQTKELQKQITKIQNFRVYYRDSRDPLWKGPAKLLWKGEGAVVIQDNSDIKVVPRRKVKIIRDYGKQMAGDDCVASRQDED

[2] = molecular target: T1, Human immunodeficiency virus type 1 integrase; assay: Inhibition of HIV1 integrase 3'-end processing activity
[3] = molecular target: T1, Human immunodeficiency virus type 1 integrase; assay: Inhibition of HIV1 integrase strand transfer activity in presence of magnesium cofactor
[4] = molecular target: T1, Human immunodeficiency virus type 1 integrase; assay: Inhibition of HIV1 integrase 3'-end processing activity in presence of magnesium cofactor

IC50 [1] | IC50 [2] | IC50 [3] | IC50 [4] | SMILES
18 µM | 29 µM | – | – | O=C(COc1ccc2ccccc2c1)NNC(=O)c1ccccc1O
460 µM | > 1000 µM | – | – | O=C(N/N=C/c1c[nH]c2ccccc12)c1ccc(O)c(O)c1
12 µM | 28 µM | – | – | O=C(CSc1nc(SCC(=O)NCc2ccco2)nc(SCC(=O)NCc2ccco2)n1)NCc1ccco1
> 100 µM | > 100 µM | – | – | CCCn1c(=O)c(C(=O)NNC(=O)COc2ccccc2)c(O)c2ccccc21
43 µM | 41 µM | – | – | Nc1ccc(C(=O)CC(=O)Nc2cc(C(=O)O)cc(C(=O)O)c2)cc1
> 100 µM | > 100 µM | – | – | COc1cc(C(=O)/C=C/c2ccc3c(c2)OCO3)cc(OC)c1OC
> 100 µM | > 100 µM | – | – | COc1ccc(NC(=O)CSc2nc(-c3ccncc3)nn2CC(=O)NCc2ccco2)cc1
224 µM | 212 µM | – | – | O=C(O)COc1ccccc1/C=N/Nc1nncc(-c2ccccc2)n1
16 µM | 19 µM | – | – | COc1ccc(C(=O)Nc2ccccc2C(=O)NC(C(=O)NNC(=O)c2ccccc2O)C(C)C)cc1 (configuration not stated)
89 µM | > 100 µM | – | – | O=C(/C=C/c1cccc(NC(=O)c2cccs2)c1)c1ccccc1
731 µM | 670 µM | – | – | Cc1ccc(NCC(=O)N/N=C/c2cccc(OC(=O)c3ccc4c(c3)OCO4)c2)cc1
83 µM | 300 µM | – | – | Oc1ccc(-c2csc(Nc3ncccn3)n2)cc1O
2 µM | 2 µM | – | – | COc1cccc(/C=C/C(=O)c2ccccc2)c1O
130 µM | 310 µM | – | – | Cc1cc(O)nc(SCC(=O)c2ccc(O)c(O)c2)n1
57 µM | > 100 µM | – | – | O=C1Nc2ccccc2/C1=N/NC(=O)c1ccccc1O
72 µM | 74 µM | – | – | Cc1cc(C)cc(OCC(=O)NNC(=O)c2cc3ccccc3oc2=O)c1
12 µM | 18 µM | – | – | O=C(COc1ccc2ccccc2c1)NNC(=O)c1cc2ccccc2cc1O
100 µM | > 100 µM | – | – | CCc1nc2sc3c(c2c2nnc(SCC(=O)NNC(=O)c4ccc(OC)cc4)n12)CCCC3
200 µM | 192 µM | – | – | CCN(CC)c1nc(N/N=C/c2ccc([N+](=O)[O-])cc2)nc(Nc2ccc(C)c(Cl)c2)n1
37 µM | 81 µM | – | – | CNc1nc(N/N=C/c2ccc(-c3ccc([N+](=O)[O-])cc3OC)o2)nc(Nc2ccccc2)n1
85 µM | > 100 µM | – | – | Cc1nc(SCC(=O)c2ccc(O)c(O)c2)c(C#N)c(CC(C)C)c1C(N)=O
39 µM | > 100 µM | – | – | COc1ccc(/C=C/C(=O)c2ccc(O)cc2O)cc1
30 µM | 52 µM | – | – | O=C(NNC(=O)c1c(O)c2ccccc2[nH]c1=O)c1ccccc1F
> 100 µM | > 100 µM | – | – | Cn1c(=O)[nH]c(=O)c2c1nc(SCC(O)CCl)n2CC(O)COc1ccc(Cl)cc1 (configuration not stated)
20 µM | 32 µM | – | – | CCn1c(=O)c(C(=O)NNC(=O)c2ccc([N+](=O)[O-])cc2)c(O)c2ccccc21
680 µM | 679 µM | – | – | CC(=O)Nc1ccc2c(c1)OCCOCCOc1cc(NC(C)=O)ccc1OCCOCCO2

IC50 [1] | IC50 [2] | IC50 [3] | IC50 [4] | SMILES
92 µM | > 100 µM | – | – | O=C(/C=C/c1ccccc1OC(=O)c1cc2ccccc2oc1=O)c1ccccc1
89 µM | 278 µM | – | – | Nc1cc(O)nc(SCC(=O)c2ccc(O)c(O)c2)n1
100 µM | > 100 µM | – | – | CCc1cccc2c(SCC(=O)NNC(=O)c3ccccc3[N+](=O)[O-])nc(-c3ccc(F)cc3)nc12
> 100 µM | > 100 µM | – | – | COc1cc(OC)c(C(=O)/C=C/c2cccc([N+](=O)[O-])c2)cc1OC
70 µM | 95 µM | – | – | O=C(Nc1nccs1)/C(O)=C/C(=O)c1ccc(Cl)cc1
48 µM | > 100 µM | – | – | CCCn1c(=O)c(C(=O)NNC(=O)CC(=O)OCC)c(O)c2ccccc21
60 µM | 85 µM | – | – | O=C(CSc1nc2ccccc2c(=O)n1CC1CCCO1)NNC(=O)c1ccccc1O (configuration not stated)
180 µM and 189 µM | 180 µM and 138 µM | – | – | O=C(O)c1ccc(NCN2C(=O)c3ccc([N+](=O)[O-])cc3C2=O)cc1
251 µM | 161 µM | – | – | O=S(=O)(Nc1ccc(Br)cc1)c1ccc(Sc2ccc(S(=O)(=O)Nc3ccc(Br)cc3)cc2)cc1
4 µM | 6 µM | 9.6 µM | 17 µM | CCOc1ccc(-c2c(C#N)c(N)nc(SCC(=O)c3cc4cc(Br)cc(Br)c4oc3=O)c2C#N)cc1
60 µM | 64 µM | – | – | CCCOc1ccc(/C=N/NC2=NC(c3ccccc3O)CC(c3ccccc3)=N2)c(O)c1 (configuration not stated)
4 µM | 7 µM | – | – | O=C(O)c1cc(-c2ccc(/C=N/Nc3nc4nonc4nc3Nc3ccccc3F)o2)ccc1Cl
> 100 µM | > 100 µM | – | – | O=C(/C=C/c1ccc2c(c1)OCO2)c1ccccc1
49 µM | 78 µM | – | – | O=c1nc2n(-c3ccc(Cl)cc3)c3ccc([N+](=O)[O-])cc3cc-2c(=O)[nH]1
100 µM | 87 µM | – | – | Cn1c(SCC(=O)NNC(=O)c2cccc(O)c2)nc2sc3c(c2c1=O)CCC3
> 100 µM | > 100 µM | – | – | COc1cc(C(=O)/C=C/c2ccc3c(c2)OCO3)ccc1O
81 µM | 143 µM | – | – | CCOc1cc(Br)cc(/C=N/c2ncccc2O)c1O
13 µM | 18 µM | – | – | COc1ccc(Nc2nc(NCc3ccco3)nc(N/N=C/c3ccc(Br)cc3)n2)cc1
66 µM | 100 µM | – | – | CCCn1c(=O)c(C(=O)NNC(=O)c2ccccc2)c(O)c2ccccc21
17 µM | 37 µM | – | – | CCn1c(=O)c(C(=O)NNC(=O)c2cccc([N+](=O)[O-])c2)c(O)c2ccccc21
26 µM | 70 µM | – | – | O=C(N/N=C/c1ccc(O)c(O)c1)c1ccccc1O
> 100 µM | > 100 µM | – | – | COc1ccc(OC)c(C(=O)/C=C/c2ccc3c(c2)OCO3)c1
> 100 µM | > 100 µM | – | – | O=C(/C=C/c1ccc2c(c1)OCO2)c1ccccc1O
47 µM | 53 µM | – | – | O=C(/C=C/c1ccccc1O)c1ccc(O)cc1O
11 µM | 16 µM | – | – | Oc1ccc(Br)cc1/C=N/Nc1nc2nonc2nc1Nc1ccc(F)cc1
130 µM | 150 µM | – | – | O=C(N/N=C/c1cccc([N+](=O)[O-])c1)c1cccc(C(=O)N/N=C/c2cccc([N+](=O)[O-])c2)n1

IC50 [1] | IC50 [2] | IC50 [3] | IC50 [4] | SMILES
28 µM | 100 µM | – | – | O=C(NNC(=O)c1c(O)c2ccccc2[nH]c1=O)c1ccccc1
33 µM | 42 µM | – | – | COc1cccc(C(=O)NNC(=O)c2ccc3ccccc3c2O)c1
25 µM | 91 µM | – | – | O=C(CSc1nnc(-c2ccncc2)[nH]1)c1ccc(O)cc1O
90 µM | > 100 µM | – | – | CCCC(=O)NC(c1ccc(OC)c(OC)c1)c1cc(Cl)c2cccnc2c1O (configuration not stated)
542 µM | 579 µM | – | – | O=C(CNC(=O)c1ccc(Cl)cc1)OCC(=O)c1ccc([N+](=O)[O-])cc1
0.6 µM | 1.9 µM | – | – | O=[N+]([O-])c1cc(Br)cc(/C=N/Nc2nc(Nc3ccccc3)nc(Nc3ccccc3)n2)c1O
> 100 µM | > 100 µM | – | – | O=C(NC1CCCCC1)C(c1ccco1)N(C(=O)Cn1nnc2ccccc21)c1ccc(S(=O)(=O)NCC2CCCO2)cc1 (configuration not stated)
800 µM | 857 µM | – | – | O=C(Oc1ccc(/C=N/Nc2nnc3c(n2)[nH]c2ccccc23)cc1)c1ccc(Br)cc1
84 µM | 84 µM | – | – | Cc1ccc(NC(=O)CN2C(=O)/C(=N\NC(=O)c3ccc4ccccc4n3)c3ccccc32)cc1
70 µM | 80 µM | – | – | COc1ccc(NC(=O)c2cccc(S(=O)(=O)Nc3ccc(C(=O)O)cc3)c2)cc1
29 µM | 29 µM | – | – | COc1cc([N+](=O)[O-])cc(/C=N/Nc2nc(Nc3ccccc3)nc(Nc3ccccc3)n2)c1O
220 µM | 195 µM | – | – | Oc1ccc(Cl)cc1/C=C/c1ccc2cccc(O)c2n1
> 100 µM | > 100 µM | – | – | CCCCCCc1nc2ccccc2c(=O)n1NC(=O)c1c(O)c2ccccc2n(CC)c1=O
30 µM | 36 µM | – | – | CCn1c(=O)c(C(=O)NNC(=O)c2ccccc2[N+](=O)[O-])c(O)c2ccccc21
20 µM | 92 µM | – | – | NC(=O)NN=C1c2cc(S(=O)(=O)NCc3ccco3)ccc2-c2ccc(S(=O)(=O)NCc3ccco3)cc21
36 µM | > 100 µM | – | – | O=C1Nc2ccccc2/C1=N\NC(=O)c1ccc(O)cc1O
46 µM | 54 µM | – | – | O=C(NNC(=O)c1c(O)c2ccccc2[nH]c1=O)c1ccccc1[N+](=O)[O-]
1 µM | 3.3 µM | – | – | O=C(NNC(=O)c1c(O)c2ccccc2[nH]c1=O)c1cccc([N+](=O)[O-])c1
> 100 µM | > 100 µM | – | – | COc1cc(C(NC(=O)c2ccco2)NC(=O)c2ccco2)ccc1OCc1ccccc1
77 µM | 87 µM | – | – | O=C(CSc1nc(O)c2ccccc2n1)c1ccc(O)c(O)c1
100 µM | 100 µM | – | – | O=C(Nc1cccc(O)c1)c1cc(C(=O)Nc2cccc(O)c2)cc(N2C(=O)c3ccccc3C2=O)c1
18 µM | 49 µM | – | – | COc1ccc(C(=O)NNC(=O)c2cc3ccccc3cc2O)cc1
80 µM | > 100 µM | – | – | CCCn1c(N/N=C/c2cc(Br)ccc2O)nc2c1c(=O)[nH]c(=O)n2C
> 100 µM | > 100 µM | – | – | Cc1ccc(O)c(/C=N/Nc2nc3c(c(=O)[nH]c(=O)n3C)n2Cc2ccccc2)c1
32 µM | 67 µM | – | – | O=C(Nc1ccccc1C(=O)O)c1ccc(C(=O)Nc2ccccc2C(=O)O)cc1
58 µM | 64 µM | – | – | CCCc1nc2ccccc2c(=O)n1NC(=O)c1c(O)c2cccc3c2n(c1=O)CCC3

SMILES | IC50 [1] | IC50 [2] | IC50 [3] | IC50 [4]
O=C(CCC(=O)Nc1ccc([N+](=O)[O-])c(C(F)(F)F)c1)Nc1ccc([N+](=O)[O-])c(C(F)(F)F)c1 | 210 µM | 196 µM | – | –
Cc1ccc(NP(=O)(Oc2ccccc2)Oc2ccccc2)cc1 | > 1000 µM | > 1000 µM | – | –
